Data published in ChEMBL document CHEMBL5385876, “Discovery of unglycosylated indolocarbazoles as ROCK2 isoform-selective inhibitors for the treatment of breast cancer metastasis” (Eur J Med Chem, 2023).
Activity calls are given as the source filed them. The rule behind the calls is not given here.

How the values were obtained:
MDA-MB-231 [1] = experiment: Inhibition of IL-6 stimulated cell invasion in human MDA-MB-231 cells at 5 uM incubated for 24 hrs by crystal violet staining based transwell assay; format: functional
[2] = system: Rho-associated protein kinase 2 (Homo sapiens), O75116 [E140A]; experiment: Binding affinity to N-terminal His10-StrepII tagged human ROCK2 E140A mutant catalytic domain (1 to 553 residues) expressed in Sf9 insect cells assessed as change in melting temperature at 50 uM by SYPRO orange dye based thermal shift assay
Chain of Rho-associated protein kinase 2 (Homo sapiens), O75116 [E140A] (O75116 whole entry E140A, the tested form may be a part): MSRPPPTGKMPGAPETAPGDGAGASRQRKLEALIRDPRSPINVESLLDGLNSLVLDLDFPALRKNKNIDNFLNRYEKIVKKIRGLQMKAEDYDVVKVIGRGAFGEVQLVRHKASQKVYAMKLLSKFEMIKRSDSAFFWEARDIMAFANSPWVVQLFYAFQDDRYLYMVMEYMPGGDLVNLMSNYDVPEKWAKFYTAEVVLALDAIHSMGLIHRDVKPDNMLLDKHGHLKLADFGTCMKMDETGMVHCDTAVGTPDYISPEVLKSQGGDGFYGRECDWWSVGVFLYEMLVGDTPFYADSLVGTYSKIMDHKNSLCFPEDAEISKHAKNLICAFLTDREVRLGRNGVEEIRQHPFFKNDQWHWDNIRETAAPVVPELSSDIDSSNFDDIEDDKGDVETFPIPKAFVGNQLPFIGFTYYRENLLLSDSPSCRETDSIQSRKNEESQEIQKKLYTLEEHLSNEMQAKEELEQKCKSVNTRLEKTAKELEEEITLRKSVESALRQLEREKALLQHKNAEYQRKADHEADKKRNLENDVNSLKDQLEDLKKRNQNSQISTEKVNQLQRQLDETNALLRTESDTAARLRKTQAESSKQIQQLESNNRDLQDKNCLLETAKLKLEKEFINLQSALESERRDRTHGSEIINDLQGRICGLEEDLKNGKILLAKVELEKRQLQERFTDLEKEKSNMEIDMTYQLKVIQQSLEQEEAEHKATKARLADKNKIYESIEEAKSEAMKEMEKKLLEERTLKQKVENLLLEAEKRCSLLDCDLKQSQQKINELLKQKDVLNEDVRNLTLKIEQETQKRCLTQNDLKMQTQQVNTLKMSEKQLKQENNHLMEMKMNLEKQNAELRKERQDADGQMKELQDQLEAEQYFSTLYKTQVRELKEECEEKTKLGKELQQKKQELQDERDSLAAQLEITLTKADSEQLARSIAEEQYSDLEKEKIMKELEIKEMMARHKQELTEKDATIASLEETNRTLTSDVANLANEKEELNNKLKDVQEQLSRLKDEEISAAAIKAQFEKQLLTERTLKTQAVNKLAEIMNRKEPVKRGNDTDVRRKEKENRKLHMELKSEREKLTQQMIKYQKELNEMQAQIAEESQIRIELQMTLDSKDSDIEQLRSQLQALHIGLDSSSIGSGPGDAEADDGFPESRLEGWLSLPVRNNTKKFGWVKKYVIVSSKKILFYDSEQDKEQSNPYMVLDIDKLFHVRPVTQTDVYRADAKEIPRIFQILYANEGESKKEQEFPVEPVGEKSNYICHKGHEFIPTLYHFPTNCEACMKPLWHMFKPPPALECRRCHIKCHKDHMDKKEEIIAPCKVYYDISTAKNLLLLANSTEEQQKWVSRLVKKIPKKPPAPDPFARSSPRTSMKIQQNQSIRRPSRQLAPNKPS

[3] = biological target: T1, Rho-associated protein kinase 2 (Homo sapiens, UniProt O75116); experiment: Binding affinity to wild type N-terminal His10-StrepII tagged human ROCK2 catalytic domain (1 to 553 residues) expressed in Sf9 insect cells assessed as change in melting temperature at 50 uM by SYPRO orange dye based thermal shift assay
T1 sequence (O75116 whole entry, looked up, the tested form may be a part): as the sequence (O75116 whole entry E140A, the tested form may be a part) above, with A140E counted along it

[4] = biological target: Rho-associated protein kinase 1 (Homo sapiens, UniProt Q13464); experiment: Inhibition of ROCK1 (unknown origin)
Chain of Rho-associated protein kinase 1 (Q13464 whole entry): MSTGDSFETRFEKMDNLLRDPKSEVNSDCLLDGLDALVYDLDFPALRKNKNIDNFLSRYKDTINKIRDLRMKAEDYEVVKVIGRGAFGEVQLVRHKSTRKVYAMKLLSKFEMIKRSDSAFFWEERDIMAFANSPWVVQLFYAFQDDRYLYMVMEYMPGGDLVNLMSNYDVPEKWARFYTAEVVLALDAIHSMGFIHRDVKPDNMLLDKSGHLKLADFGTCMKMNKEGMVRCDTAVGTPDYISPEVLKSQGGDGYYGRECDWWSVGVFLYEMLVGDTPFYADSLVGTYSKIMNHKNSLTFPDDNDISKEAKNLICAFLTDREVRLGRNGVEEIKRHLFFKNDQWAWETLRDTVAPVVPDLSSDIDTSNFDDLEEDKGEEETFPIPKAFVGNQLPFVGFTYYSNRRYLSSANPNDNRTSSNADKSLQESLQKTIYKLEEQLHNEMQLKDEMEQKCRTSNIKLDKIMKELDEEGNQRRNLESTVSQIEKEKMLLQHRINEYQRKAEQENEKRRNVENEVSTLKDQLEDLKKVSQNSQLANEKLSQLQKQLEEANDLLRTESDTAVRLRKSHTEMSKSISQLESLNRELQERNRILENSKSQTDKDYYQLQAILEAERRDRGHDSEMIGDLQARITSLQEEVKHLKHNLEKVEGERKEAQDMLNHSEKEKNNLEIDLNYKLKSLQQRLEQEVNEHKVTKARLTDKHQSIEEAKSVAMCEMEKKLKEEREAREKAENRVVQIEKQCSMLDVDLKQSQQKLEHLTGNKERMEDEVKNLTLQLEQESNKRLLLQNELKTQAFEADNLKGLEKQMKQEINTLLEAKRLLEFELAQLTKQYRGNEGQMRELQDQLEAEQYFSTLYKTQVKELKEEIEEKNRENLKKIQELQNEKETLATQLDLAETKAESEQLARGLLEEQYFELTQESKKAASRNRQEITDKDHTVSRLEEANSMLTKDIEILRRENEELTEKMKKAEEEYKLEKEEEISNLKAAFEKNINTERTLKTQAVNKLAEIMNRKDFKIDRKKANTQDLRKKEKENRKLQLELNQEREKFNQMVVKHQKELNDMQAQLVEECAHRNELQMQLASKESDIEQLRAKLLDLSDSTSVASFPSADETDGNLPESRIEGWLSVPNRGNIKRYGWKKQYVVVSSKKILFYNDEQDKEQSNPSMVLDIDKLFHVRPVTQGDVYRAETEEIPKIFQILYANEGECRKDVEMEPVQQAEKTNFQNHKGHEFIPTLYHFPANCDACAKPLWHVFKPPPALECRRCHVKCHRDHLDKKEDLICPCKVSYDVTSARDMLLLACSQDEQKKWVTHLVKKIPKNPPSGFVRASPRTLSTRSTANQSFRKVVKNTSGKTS

[5] = AUC (0 to t) in ICR mouse at 15 mg/kg, iv administered as single dose and measured for 8 hrs by LC-MS/MS analysis; format: ADME, organism-based; design: time 8 hrs, dose 15 mg/kg, route iv; conditions: in vivo
MDA-MB-231 [6] = experiment: Antimetastatic activity in human MDA-MB-231 cells assessed as appearance of disordered and sparse actin filament at 5 uM incubated for 24 hrs by SEM analysis; format: functional, cell-based
[7] = biological target: High affinity nerve growth factor receptor (Homo sapiens) (UniProt P04629); experiment: Inhibition of human recombinant TRKA at 125 nM
SK-OV-3 [8] = experiment: Inhibition of cell invasion in human SK-OV-3 cells at 1.25 to 10 uM incubated for 48 hrs by crystal violet staining based transwell assay; format: functional; conditions: dose 1.25-10 µM
[9] = Volume of distribution at steady state in ICR mouse at 15 mg/kg, iv administered as single dose and measured for 8 hrs by LC-MS/MS analysis; format: ADME, organism-based; conditions: in vivo, read-out: Vdss
[10] = biological target: Signal transducer and activator of transcription 3 (Homo sapiens) (UniProt P40763); experiment: Inhibition of STAT3 transcriptional activity in human MDA-MB-231 cells assessed as reduction in TWIST1 mRNA level at 5 uM incubated for 24 hrs by qRT-PCR analysis; format: cell-based
Chain of Signal transducer and activator of transcription 3 (Homo sapiens) (P40763 whole entry, the tested form may be a part): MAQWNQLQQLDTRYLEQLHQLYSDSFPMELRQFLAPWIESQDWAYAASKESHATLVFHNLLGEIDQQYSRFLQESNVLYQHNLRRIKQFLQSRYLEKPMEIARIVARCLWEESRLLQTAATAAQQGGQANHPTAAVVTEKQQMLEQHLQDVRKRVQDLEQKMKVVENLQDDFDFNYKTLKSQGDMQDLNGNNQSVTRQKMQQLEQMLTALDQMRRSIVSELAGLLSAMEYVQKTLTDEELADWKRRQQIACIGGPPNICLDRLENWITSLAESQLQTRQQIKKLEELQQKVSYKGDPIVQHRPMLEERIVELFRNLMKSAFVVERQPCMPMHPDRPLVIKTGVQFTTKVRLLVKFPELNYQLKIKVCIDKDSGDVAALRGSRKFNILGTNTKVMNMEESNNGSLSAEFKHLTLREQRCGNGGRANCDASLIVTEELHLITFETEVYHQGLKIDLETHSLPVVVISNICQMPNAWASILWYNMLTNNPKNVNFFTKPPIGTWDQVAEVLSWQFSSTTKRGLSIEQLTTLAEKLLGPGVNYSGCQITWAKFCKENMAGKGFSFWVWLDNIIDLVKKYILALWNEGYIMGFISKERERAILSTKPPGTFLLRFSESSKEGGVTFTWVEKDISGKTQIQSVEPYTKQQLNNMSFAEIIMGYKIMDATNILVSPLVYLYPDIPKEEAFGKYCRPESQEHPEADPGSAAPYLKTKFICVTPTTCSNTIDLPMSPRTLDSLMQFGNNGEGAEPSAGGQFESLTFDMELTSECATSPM

[11] = biological target: Serine/threonine-protein kinase PLK1 (Homo sapiens, UniProt P53350); experiment: Inhibition of PLK1 (unknown origin)
[12] = Drug uptake in lung of ICR mouse at 15 mg/kg, iv administered as single dose and measured after 0.25 to 4 hrs by LC-MS/MS analysis; format: ADME, organism-based; conditions: in vivo, time 0.25-4 hrs
SK-OV-3 [13] = experiment: Antiproliferative activity against human SK-OV-3 cells assessed as suppression of cell growth incubated for 72 hrs by SRB assay; format: functional, cell-based; conditions: SK-OV-3, 72 h
MDA-MB-231 [14] = experiment: Downregulation of phosphorylated STAT1 protein expression in human MDA-MB-231 cells at 0.5 uM incubated for 24 hrs by Western blot analysis; format: functional, cell-based
[15] = system: Rho-associated protein kinase 2 (Homo sapiens), O75116 [M87A]; experiment: Binding affinity to N-terminal His10-StrepII tagged human ROCK2 M87A mutant catalytic domain (1 to 553 residues) expressed in Sf9 insect cells assessed as change in melting temperature at 50 uM by SYPRO orange dye based thermal shift assay
Chain of Rho-associated protein kinase 2 (Homo sapiens), O75116 [M87A] (O75116 whole entry M87A, the tested form may be a part): as the sequence (O75116 whole entry E140A, the tested form may be a part) above, with M87A, A140E counted along it

[16] = biological target: Misshapen-like kinase 1 (Homo sapiens) (UniProt Q8N4C8); experiment: Inhibition of human recombinant MINK1 at 125 nM
[17] = biological target: Maternal embryonic leucine zipper kinase (Homo sapiens) (UniProt Q14680); experiment: Inhibition of human recombinant MELK at 125 nM
[18] = Clearance in ICR mouse at 15 mg/kg, iv administered as single dose and measured for 8 hrs by LC-MS/MS analysis; format: ADME, organism-based; conditions: in vivo
[19] = Volume of distribution at terminal state in ICR mouse at 15 mg/kg, iv administered as single dose and measured for 8 hrs by LC-MS/MS analysis; format: ADME, organism-based; conditions: in vivo, read-out: Vz
MDA-MB-231 [20] = experiment: Antimetastatic activity against human MDA-MB-231 cells harboring Luc-mcherry xenografted in BALB/c nude mouse at 15 mg/kg, iv administered once a day for 45 days and measured on day 19,30 and 45 by bioluminescence imaging; format: functional, organism-based; conditions: time 45.0 day
[21] = biological target: Signal transducer and activator of transcription 3 (Homo sapiens) (UniProt P40763); experiment: Inhibition of STAT3 transcriptional activity in human MDA-MB-231 cells assessed as reduction in MMP2 mRNA level at 5 uM incubated for 24 hrs by qRT-PCR analysis; format: cell-based
[22] = biological target: Protein kinase C delta type (Homo sapiens, UniProt Q05655); experiment: Inhibition of PKCdelta (unknown origin)
[23] = biological target: Mitogen-activated protein kinase kinase kinase 5 (Homo sapiens, UniProt Q99683); experiment: Inhibition of ASK1 (unknown origin)
Chain of Mitogen-activated protein kinase kinase kinase 5 (Q99683 whole entry): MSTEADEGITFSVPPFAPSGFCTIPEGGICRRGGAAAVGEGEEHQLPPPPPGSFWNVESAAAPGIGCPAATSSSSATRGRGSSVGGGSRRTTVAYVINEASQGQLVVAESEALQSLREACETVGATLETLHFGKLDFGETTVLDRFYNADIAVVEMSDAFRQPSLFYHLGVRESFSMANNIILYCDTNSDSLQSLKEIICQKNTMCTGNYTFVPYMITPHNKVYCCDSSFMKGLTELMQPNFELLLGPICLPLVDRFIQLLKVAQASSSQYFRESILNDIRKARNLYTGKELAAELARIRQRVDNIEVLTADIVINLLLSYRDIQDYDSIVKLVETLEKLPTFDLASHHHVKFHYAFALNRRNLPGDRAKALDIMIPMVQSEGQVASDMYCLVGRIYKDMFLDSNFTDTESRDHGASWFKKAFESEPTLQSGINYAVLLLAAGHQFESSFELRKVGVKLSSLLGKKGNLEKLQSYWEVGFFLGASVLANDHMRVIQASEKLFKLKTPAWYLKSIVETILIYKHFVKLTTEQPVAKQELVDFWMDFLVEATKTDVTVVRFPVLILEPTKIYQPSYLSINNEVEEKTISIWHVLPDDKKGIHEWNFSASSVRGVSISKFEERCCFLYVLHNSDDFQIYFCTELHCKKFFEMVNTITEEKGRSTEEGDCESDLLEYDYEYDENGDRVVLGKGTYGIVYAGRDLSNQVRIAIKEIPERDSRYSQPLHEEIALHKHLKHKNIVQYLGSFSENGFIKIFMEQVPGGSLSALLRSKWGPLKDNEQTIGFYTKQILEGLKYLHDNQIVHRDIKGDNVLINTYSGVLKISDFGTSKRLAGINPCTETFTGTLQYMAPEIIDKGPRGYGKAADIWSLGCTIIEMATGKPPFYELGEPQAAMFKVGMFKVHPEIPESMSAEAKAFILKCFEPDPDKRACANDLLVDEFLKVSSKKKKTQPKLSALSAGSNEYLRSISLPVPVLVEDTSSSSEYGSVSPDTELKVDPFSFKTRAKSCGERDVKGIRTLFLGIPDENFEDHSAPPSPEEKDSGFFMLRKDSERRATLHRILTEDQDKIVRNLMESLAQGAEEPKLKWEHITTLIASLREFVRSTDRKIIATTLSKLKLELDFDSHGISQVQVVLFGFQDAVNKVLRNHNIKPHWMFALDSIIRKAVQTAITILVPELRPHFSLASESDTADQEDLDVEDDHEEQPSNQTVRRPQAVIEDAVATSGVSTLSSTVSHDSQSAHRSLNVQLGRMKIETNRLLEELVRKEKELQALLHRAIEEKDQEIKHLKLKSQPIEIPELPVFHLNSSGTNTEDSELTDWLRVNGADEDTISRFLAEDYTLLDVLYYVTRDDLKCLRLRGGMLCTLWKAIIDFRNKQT

[24] = biological target: Ribosomal protein S6 kinase alpha-6 (Homo sapiens) (UniProt Q9UK32); experiment: Inhibition of human recombinant RSK4 at 125 nM
[25] = biological target: Signal transducer and activator of transcription 3 (Homo sapiens) (UniProt P40763); experiment: Inhibition of STAT3 activation in human MDA-MB-231 cells assessed as reduction in phosphorylated STAT3 nuclear translocation at 5 uM incubated for 24 hrs by immunofluorescence analysis; format: cell-based
MDA-MB-231 [26] = experiment: Inhibition of IL-6 stimulated phosphorylated STAT3 at Y705 residue expression in human MDA-MB-231 cells at 5 uM incubated for 24 hrs by Western blot analysis; format: functional, cell-based
[27] = biological target: Serine/threonine-protein kinase pim-1 (Homo sapiens, UniProt P11309); experiment: Inhibition of PIM1 (unknown origin)
MDA-MB-231 [28] = experiment: Upregulation of phosphorylated STAT6 protein expression in human MDA-MB-231 cells at 0.5 uM incubated for 24 hrs by Western blot analysis; format: functional, cell-based
[29] = biological target: Signal transducer and activator of transcription 3 (Homo sapiens) (UniProt P40763); experiment: Inhibition of STAT3 activation in human MDA-MB-231 cells assessed as reduction in STAT3 phosphorylation at Y705 residue at 1.25 to 10 uM incubated for 24 hrs by Western blot analysis; format: cell-based; conditions: dose 1.25-10 µM
[30] = Selectivity index, ratio of IC50 for PKCdelta (unknown origin) to IC50 for N-terminal His10-StrepII tagged human ROCK2 catalytic domain (1 to 553 residues) expressed in Sf9 insect cells
[31] = biological target: T1, Rho-associated protein kinase 2; experiment: Binding affinity to ROCK2 in human MDA-MB- 231 cells assessed as stabilization at 100 uM and 52 to 61 degreeC incubated for 5 mins by CETSA; format: cell-based
[32] = MRT (0 to infinity) in ICR mouse at 15 mg/kg, iv administered as single dose and measured for 8 hrs by LC-MS/MS analysis; format: ADME, organism-based; conditions: in vivo
MDA-MB-231 [33] = experiment: Antimetastatic activity in human MDA-MB-231 cells assessed as effect on cell shapes at 5 uM incubated for 24 hrs by SEM analysis; format: functional, cell-based
MDA-MB-231 [34] = experiment: Inhibition of cell invasion in human MDA-MB-231 cells incubated for 48 hrs by crystal violet staining based transwell assay; format: functional; conditions: dose 1.25-10 µM
[35] = MRT (0 to t) in ICR mouse at 15 mg/kg, iv administered as single dose and measured for 8 hrs by LC-MS/MS analysis; format: ADME, organism-based; conditions: in vivo
[36] = Oral bioavailability in ICR mouse at 20 mg/kg administered as single dose and measured for 8 hrs by LC-MS/MS analysis; format: ADME, organism-based; conditions: in vivo

Activity [2]: inactive
Activity [3]: Active
IC50 [4]: 923 nM
AUC(0-t) at 8 h [5]: 6240 ng·h/mL
inhibition [7]: Active
Vd [9]: 0.32 L/kg
inhibition [10]: Active
IC50 [11]: > 10000 nM
Drug uptake [12]: Active
IC50 (SK-OV-3 [13]): 4440 nM
Activity [15]: inactive
inhibition [16]: Active
inhibition [17]: Active
clearance [18]: 29.3 mL/min/kg
Vd [19]: 4.87 L/kg
inhibition [21]: Active
IC50 [22]: 60.7 nM
IC50 [23]: 944 nM
inhibition [24]: Active
inhibition [25]: Active
IC50 [27]: 308 nM
inhibition [29]: Active
Activity [31]: Active
MRT inf [32]: 10.8 min
MRT last at 8 h [35]: 10.8 min
bioavailability [36]: < 1%
Compound: O=C1NCc2c1c1c3cc(O)ccc3[nH]c1c1[nH]c3ccccc3c21
inhibition (MDA-MB-231 [1]): Active
Activity (MDA-MB-231 [6]): Active
inhibition (SK-OV-3 [8]): Active
Activity (MDA-MB-231 [14]): Active
Activity (MDA-MB-231 [20]): Active
inhibition (MDA-MB-231 [26]): Active
Activity (MDA-MB-231 [28]): Active
Ratio IC50 [30]: > 10
Activity (MDA-MB-231 [33]): Active
inhibition (MDA-MB-231 [34]): Dose-Dependent Effect
